Values of other authors, collected in US20070275929A1, “Composition and method for controlling the transmission of noroviruses” (THE DIAL CORPORATION, priority 2006, published 2007).

Tested on: norovirus
Settings: alcohol alone

CCO [alcohol]
contact time required to reduce norovirus populations by a factor of 3: 30 min
